The source made the active and inactive calls. No cut-off for these calls is given here.
Tests used:
Acetylcholinesterase [1] = target: T1, Acetylcholinesterase (Homo sapiens, UniProt P22303); settings: at 0.1 mg/mL
Acetylcholinesterase [2] = target: T1, Acetylcholinesterase
Acetylcholinesterase [3] = target: T1, Acetylcholinesterase; assay: Inhibition of AChE (unknown origin) at 10 mg/ml after 20 min by TLC bioautographic assay

T1 sequence (P22303 whole entry): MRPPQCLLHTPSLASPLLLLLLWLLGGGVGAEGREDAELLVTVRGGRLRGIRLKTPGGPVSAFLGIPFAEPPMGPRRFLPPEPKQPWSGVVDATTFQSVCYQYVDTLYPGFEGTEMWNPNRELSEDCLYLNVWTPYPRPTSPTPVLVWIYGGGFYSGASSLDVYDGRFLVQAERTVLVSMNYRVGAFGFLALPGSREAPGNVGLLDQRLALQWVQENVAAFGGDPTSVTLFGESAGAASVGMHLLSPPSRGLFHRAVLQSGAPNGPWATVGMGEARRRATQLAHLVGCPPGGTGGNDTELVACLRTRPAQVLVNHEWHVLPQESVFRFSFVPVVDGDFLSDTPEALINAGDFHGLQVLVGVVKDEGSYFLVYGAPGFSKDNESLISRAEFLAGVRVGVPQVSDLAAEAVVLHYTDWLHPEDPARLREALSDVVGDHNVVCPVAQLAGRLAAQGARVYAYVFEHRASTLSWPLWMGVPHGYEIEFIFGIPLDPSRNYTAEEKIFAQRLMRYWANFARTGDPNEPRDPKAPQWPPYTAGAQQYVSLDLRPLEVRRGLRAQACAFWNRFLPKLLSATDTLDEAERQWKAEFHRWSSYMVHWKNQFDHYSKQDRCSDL

SMILES | inhibition (Acetylcholinesterase [1]) [%] | IC50 (Acetylcholinesterase [2]) | IC50 (Acetylcholinesterase [2]; read-out: IC50 (converted)) [µM] | inhibition (Acetylcholinesterase [3])
COc1cccc2c3c(c(=O)n(C)c12)[C@@H](O)[C@H](O)C(C)(C)O3 (relative stereo) [REL-ZANTHODIOLINE] | 34.4 | Not Active |  | 
COc1cc2oc(=O)ccc2c(OC)c1OC [5,6,7-TRIMETHOXYCOUMARIN] | 49.7 |  | > 423 | 
COc1c(C[C@H](C)C(C)(C)O)c(=O)n(C)c2ccccc12 [(-)-(S)-EDULININE] | 19.4 | Not Active |  | 
COc1c2ccccc2nc2occc12 [DICTAMNINE] | 12.6 | Not Active |  | 
COc1cc(=O)[nH]c2c(OC)cccc12 [EDULITINE] | 45.1 |  | > 487 | 
COc1c2ccoc2nc2c(OC)cccc12 [GAMMA-FAGARINE] | 24.3 | Not Active |  | 
COc1c2[nH]c3occc3c(OC)c-2ccc1=O [HAPLOPINE] | 51.9 |  | > 408 | 
COc1ccc(C(=O)[C@@H]2CO[C@H](c3ccc4c(c3)OCO4)[C@H]2CO)cc1OC [MAGNOLONE] | 9.9 | Not Active |  | 
COc1ccc2c(OC)c3ccoc3nc2c1OC [SKIMMIANINE] | 91.3 |  | 33.2 | Active
COc1cc2oc(=O)ccc2c(OC)c1C[C@@H](O)C(C)(C)O [TODDALOLACTONE] | 33.9 | Not Active |  | 

From ChEMBL document CHEMBL3046928, “Skimmianine, a furoquinoline alkaloid from Zanthoxylum nitidum as a potential acetylcholinesterase inhibitor” (Med Chem Res, 2012)
